# Publication PMC3877544 (Cell Death & Disease, 2013)
# Molecular target: voltage-dependent anion channel 1 (VDAC1) (Rattus norvegicus, UniProt Q9Z2L0)
# Assay: microscale thermophoresis with fluorescently labeled purified VDAC1
# Type: binding
# voltage-dependent anion channel 1 (VDAC1), sequence (Q9Z2L0 2-283): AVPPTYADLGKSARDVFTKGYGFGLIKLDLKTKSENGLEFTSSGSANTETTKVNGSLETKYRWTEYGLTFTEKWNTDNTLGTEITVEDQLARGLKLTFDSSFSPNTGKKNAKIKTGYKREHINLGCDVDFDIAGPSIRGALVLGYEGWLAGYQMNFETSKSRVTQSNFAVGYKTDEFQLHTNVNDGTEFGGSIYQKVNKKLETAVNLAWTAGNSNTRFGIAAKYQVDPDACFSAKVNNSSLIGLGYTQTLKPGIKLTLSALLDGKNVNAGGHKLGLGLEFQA
smiles,measurement,value
"C=C(C)[C@@H]1CCC(C)=C[C@H]1c1c(O)cc(CCCCC)cc1O [CBD, cannabidiol]",Kd,11.2 ± 6 µM
